Six compounds from patent publication US20240059671A1, “TYROSINE KINASE 2 (TYK2) DEGRADATION COMPOUNDS AND METHODS OF USE” (CULLGEN (SHANGHAI), INC., priority 2020, published 2024) can be followed below.

This test concerns the target TYK2 (Homo sapiens, UniProt P29597). Briefly: TYK2 protein degradation in MOLT-4 cells by immunoblotting. Type of test: cell-based. More on the design: endogenous in cells; host or cells: MOLT-4. The following applies: MOLT-4 cells, 24 hours. The essentials: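 Percent TYK2 degradation came from densitometry of chemiluminescent immunoblots of RIPA lysates. Before lysis, MOLT-4 cells had been treated for 24 h with each compound at 0.5 or 5 μM.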

Some results are limits rather than exact numbers.

Chain of TYK2 (P29597 whole entry): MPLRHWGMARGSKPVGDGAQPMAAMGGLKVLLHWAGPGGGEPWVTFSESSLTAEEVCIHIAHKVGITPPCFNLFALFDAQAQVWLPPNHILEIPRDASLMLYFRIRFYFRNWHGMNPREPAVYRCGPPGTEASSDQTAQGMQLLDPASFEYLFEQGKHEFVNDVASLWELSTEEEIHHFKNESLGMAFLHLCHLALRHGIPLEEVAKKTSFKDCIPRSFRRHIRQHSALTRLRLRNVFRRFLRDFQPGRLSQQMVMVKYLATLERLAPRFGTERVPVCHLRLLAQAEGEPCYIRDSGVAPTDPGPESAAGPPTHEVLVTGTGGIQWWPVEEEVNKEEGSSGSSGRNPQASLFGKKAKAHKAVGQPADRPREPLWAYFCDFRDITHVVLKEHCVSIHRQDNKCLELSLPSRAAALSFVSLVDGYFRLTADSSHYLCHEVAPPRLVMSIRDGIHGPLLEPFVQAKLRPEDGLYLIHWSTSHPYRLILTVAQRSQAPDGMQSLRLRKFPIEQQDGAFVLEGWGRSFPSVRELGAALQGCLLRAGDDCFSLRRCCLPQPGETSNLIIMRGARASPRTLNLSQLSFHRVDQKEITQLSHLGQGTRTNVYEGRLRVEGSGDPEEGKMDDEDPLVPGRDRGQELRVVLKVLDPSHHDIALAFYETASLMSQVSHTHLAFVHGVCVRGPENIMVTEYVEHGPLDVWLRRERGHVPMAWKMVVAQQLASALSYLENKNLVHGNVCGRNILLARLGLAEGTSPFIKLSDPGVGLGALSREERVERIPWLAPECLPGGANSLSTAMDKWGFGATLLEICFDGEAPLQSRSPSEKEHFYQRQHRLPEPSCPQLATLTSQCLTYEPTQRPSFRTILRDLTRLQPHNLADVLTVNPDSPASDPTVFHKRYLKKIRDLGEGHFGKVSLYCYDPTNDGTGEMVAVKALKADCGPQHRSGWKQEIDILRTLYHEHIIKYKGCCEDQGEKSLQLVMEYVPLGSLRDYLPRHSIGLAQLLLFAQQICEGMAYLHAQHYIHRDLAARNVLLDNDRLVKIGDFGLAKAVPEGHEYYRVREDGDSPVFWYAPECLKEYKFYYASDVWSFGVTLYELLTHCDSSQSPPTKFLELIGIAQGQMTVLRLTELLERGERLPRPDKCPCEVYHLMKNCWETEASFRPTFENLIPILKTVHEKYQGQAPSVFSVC

In the case of `CNC(=O)c1nnc(NC(=O)C2CC2)cc1Nc1cccc(-c2ncn(CCNC(=O)CCCCCCNc3cccc4c3C(=O)N(C3CCC(=O)NC3=O)C4=O)n2)c1OC` (stereo not shown) [CPD-006, 6-(Cyclopropanecarboxamido)-4-((3-(1-(2-(7-((2-(2,6-dioxopiperidin-3-yl)-1,3-dioxoisoindolin-4-yl)amino)heptanamido)ethyl)-1H-1,2,4-triazol-3-yl)-2-methoxyphenyl)amino)-N-methylpyridazine-3-carboxamide], the “TYK2 Degradation (0.5 μM)” value is reported as ≤20%.

With `CNC(=O)c1nnc(NC(=O)CNC(=O)CCOCCOCCOCCOCCOCCC(=O)N[C@H](C(=O)N2C[C@H](O)C[C@H]2C(=O)NCc2ccc(-c3scnc3C)cc2)C(C)(C)C)cc1Nc1cccc(-c2ncn(C)n2)c1OC` [CPD-033, N^1—((S)-1-((2S,4R)-4-Hydroxy-2-((4-(4-methylthiazol-5-yl)benzyl)carbamoyl)pyrrolidin-1-yl)-3,3-dimethyl-1-oxobutan-2-yl)-N^19-(2-((5-((2-methoxy-3-(1-methyl-1H-1,2,4-triazol-3-yl)phenyl)amino)-6-(methylcarbamoyl)pyridazin-3-yl)amino)-2-oxoethyl)-4,7,10,13,16-pentaoxanonadecanediamide], the “TYK2 Degradation (0.5 μM)” value was ≤20% and the “TYK2 Degradation (5 μM)” value was ≤20%. For `CNC(=O)c1nnc(NC(=O)C2CC2)cc1Nc1cccc(-c2ncn(CCNC(=O)CCOCCOCCOCCOCCC(=O)N[C@H](C(=O)N3C[C@H](O)C[C@H]3C(=O)NCc3ccc(-c4scnc4C)cc3)C(C)(C)C)n2)c1OC` [CPD-072, N^1-(2-(3-(3-((6-(Cyclopropanecarboxamido)-3-(methylcarbamoyl)pyridazin-4-yl)amino)-2-methoxyphenyl)-1H-1,2,4-triazol-1-yl)ethyl)-N^16-((S)-1-((2S,4R)-4-hydroxy-2-((4-(4-methylthiazol-5-yl)benzyl)carbamoyl)pyrrolidin-1-yl)-3,3-dimethyl-1-oxobutan-2-yl)-4,7,10,13-tetraoxahexadecanediamide], the “TYK2 Degradation (0.5 μM)” value is ≤20% and the “TYK2 Degradation (5 μM)” value is reported as ≤20%. Consider `CNC(=O)c1nnc(NC(=O)CNC(=O)CCOCCOCCOCCOCCOCCNc2cccc3c2C(=O)N(C2CCC(=O)NC2=O)C3=O)cc1Nc1cccc(-c2ncn(C)n2)c1OC` (stereo not shown) [CPD-053, 6-(1-((2-(2,6-Dioxopiperidin-3-yl)-1,3-dioxoisoindolin-4-yl)amino)-18-oxo-3,6,9,12,15-pentaoxa-19-azahenicosan-21-amido)-4-((2-methoxy-3-(1-methyl-1H-1,2,4-triazol-3-yl)phenyl)amino)-N-methylpyridazine-3-carboxamide], for which the “TYK2 Degradation (0.5 μM)” value is ≤20% and the “TYK2 Degradation (5 μM)” value is listed as ≤20%. For `CNC(=O)c1nnc(NC(=O)C2CC2)cc1Nc1cccc(-c2ncn(CCNC(=O)CCCCNc3ccc4c(c3)C(=O)N(C3CCC(=O)NC3=O)C4=O)n2)c1OC` (stereo not shown) [CPD-016, 6-(Cyclopropanecarboxamido)-4-((3-(1-(2-(5-((2-(2,6-dioxopiperidin-3-yl)-1,3-dioxoisoindolin-5-yl)amino)pentanamido)ethyl)-1H-1,2,4-triazol-3-yl)-2-methoxyphenyl)amino)-N-methylpyridazine-3-carboxamide], the “TYK2 Degradation (0.5 μM)” value is given as ≤20%.

For the compound `CNC(=O)c1nnc(NC(=O)CNC(=O)CCOCCOCCOCCOCCC(=O)N[C@H](C(=O)N2C[C@H](O)C[C@H]2C(=O)NCc2ccc(-c3scnc3C)cc2)C(C)(C)C)cc1Nc1cccc(-c2ncn(C)n2)c1OC` [CPD-031, N^1—((S)-1-((2S,4R)-4-Hydroxy-2-((4-(4-methylthiazol-5-yl)benzyl)carbamoyl)pyrrolidin-1-yl)-3,3-dimethyl-1-oxobutan-2-yl)-N^16-(2-((5-((2-methoxy-3-(1-methyl-1H-1,2,4-triazol-3-yl)phenyl)amino)-6-(methylcarbamoyl)pyridazin-3-yl)amino)-2-oxoethyl)-4,7,10,13-tetraoxahexadecanediamide], the “TYK2 Degradation (0.5 μM)” value is recorded as ≤20% and the “TYK2 Degradation (5 μM)” value is given as ≤20%.
